The record followed here is PubChem BioAssay AID296 (DTP/NCI, 2004).

The subject of this experiment is MX-1 breast xenograft, nude mice, tumor weight T/C. Briefly: NCI In Vivo Anticancer Drug Screen. Data for tumor model Human Mammary Carcinoma MX-1 Xenograft (intrarenal inoculation) in NU/NU Swiss (nude) mice. Conditions: endpoint: mean tumor weight change, higher = larger tumour. Summed up: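 Read-out: treated (T) over vehicle control (C) ratio of survival or tumor size. Dosing in animals carrying the transplanted tumor.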

Setting [1] is: dose: 75.0 mg/kg/injection, schedule: Q04DX003 (sc), vehicle: saline with Tween-80.
Setting [2] is: dose: 150.0 mg/kg/injection, schedule: Q04DX003 (sc), vehicle: saline with Tween-80.
Where [3] appears, read: dose: 300.0 mg/kg/injection, schedule: Q04DX003 (sc), vehicle: saline with Tween-80.
[4] abbreviates: dose: 150.0 mg/kg/injection, schedule: Q04DX003 (sc), vehicle: Klucel (hydroxypropylcellulose) (HPC).
Where [5] appears, read: dose: 300.0 mg/kg/injection, schedule: Q04DX003 (sc), vehicle: Klucel (hydroxypropylcellulose) (HPC).

Each structure is given as a SMILES string. Several values for one entry are separate records, joined by “and”; a condition that tells them apart may be missing. Identical values can stand only once. Records with an inconclusive call do not appear.

For `CO[C@@]12[C@H](COC(N)=O)C3=C(C(=O)C(C)=C(N)C3=O)N1C[C@@H]1N[C@@H]12`, the T/C (dose: 3.0 mg/kg/injection, schedule: Q04DX003 (sc), vehicle: saline) is -100 % of control; the T/C (dose: 6.0 mg/kg/injection, schedule: Q04DX003 (sc), vehicle: saline) is -88 % of control and -100 % of control (2×).
As for `CC1=CC2C(O)(CC(CO)=CC3C4C(C)(C)C4(OC(=O)c4ccccc4)C(OC(=O)c4ccccc4)C(C)C32O)C1=O` (stereo not given), the T/C by setting is: (dose: 2.5 mg/kg/injection, schedule: Q04DX003 (sc), vehicle: saline with Tween-80) 83 % of control; (dose: 5.0 mg/kg/injection, schedule: Q04DX003 (sc), vehicle: saline with Tween-80) 70 % of control; (dose: 10.0 mg/kg/injection, schedule: Q04DX003 (sc), vehicle: saline with Tween-80) 90 % of control.
Consider `CN1N=C(N)c2cn(C3OC(COP(=O)(O)O)C(O)C3O)c3ncnc1c23` (stereo not given), for which the T/C (dose: 25.0 mg/kg/injection, schedule: Q01DX010 (sc), vehicle: water) is -92 % of control and -76 % of control; the T/C (dose: 50.0 mg/kg/injection, schedule: Q01DX010 (sc), vehicle: water) is -91 % of control and -75 % of control.
Consider `O=c1n[n+]([O-])ccn1C1OC(CO)C(O)C1O` (stereo not given), for which the T/C runs as follows: (dose: 100.0 mg/kg/injection, schedule: Q01DX010 (sc), vehicle: suspension in saline) 56 % of control; (dose: 200.0 mg/kg/injection, schedule: Q01DX010 (sc), vehicle: suspension in saline) 91 % of control; (dose: 400.0 mg/kg/injection, schedule: Q01DX010 (sc), vehicle: suspension in saline) 86 % of control.
As for `C=C1C(=O)C2=CC1CCC(=O)C1(C)CCC(OC(C)=O)C(C)(C)C1CC2O` (stereo not given), the T/C is 107 % of control (dose: 30.0 mg/kg/injection, schedule: Q04DX003 (sc), vehicle: Klucel (hydroxypropylcellulose) (HPC)); 69 % of control (dose: 60.0 mg/kg/injection, schedule: Q04DX003 (sc), vehicle: Klucel (hydroxypropylcellulose) (HPC)); 42 % of control (dose: 120.0 mg/kg/injection, schedule: Q04DX003 (sc), vehicle: Klucel (hydroxypropylcellulose) (HPC)).
For `O=NNc1ccc(Cl)cn1`, the T/C runs as follows: (dose: 18.7 mg/kg/injection, schedule: Q04DX003 (ip), vehicle: water) 24 % of control; (dose: 37.5 mg/kg/injection, schedule: Q04DX003 (ip), vehicle: water) -51 % of control.
Turning to `Cc1cc(=O)n2c3c(c4c(cc13)c(CN(C)C)cc(=O)n4C)OC2`, the T/C reads like this: under setting [1], 109 % of control; under setting [2], 151 % of control; under setting [3], 80 % of control.
As to `O=C(NP(=O)(N1CC1)N1CC1)c1cc(I)ccc1I`, the T/C (dose: 37.5 mg/kg/injection, schedule: Q04DX003 (sc), vehicle: saline) is 23 % of control; the T/C (dose: 75.0 mg/kg/injection, schedule: Q04DX003 (sc), vehicle: suspension in saline) was -60 % of control; the T/C (dose: 150.0 mg/kg/injection, schedule: Q04DX003 (sc), vehicle: saline) is -9 % of control; the T/C (dose: 150.0 mg/kg/injection, schedule: Q04DX003 (sc), vehicle: suspension in saline) was 11 % of control; the T/C (dose: 300.0 mg/kg/injection, schedule: Q04DX003 (sc), vehicle: saline) was -100 % of control; the T/C (dose: 300.0 mg/kg/injection, schedule: Q04DX003 (sc), vehicle: suspension in saline) was -27 % of control. Where the note is “dose: 600.0 mg/kg/injection, schedule: Q04DX003 (sc), vehicle: suspension in saline”, the T/C is 2 % of control.
For `O=C(O)CSc1c(Cl)c(=O)oc2ccc(Cl)cc12`, the T/C was 87 % of control (dose: 75.0 mg/kg/injection, schedule: Q04DX003 (sc), vehicle: Klucel (hydroxypropylcellulose) (HPC)); 61 % of control and 75 % of control under setting [4]; 54 % of control and 62 % of control under setting [5].
On to `CC12CCC3C(CCC4CC(OC(=O)Cc5ccc(N(CCCl)CCCl)cc5)CCC43C)C1CCC(=O)N2` (stereo not given), for which the T/C (dose: 25.0 mg/kg/injection, schedule: Q04DX003 (sc), vehicle: saline with Tween-80) is 3 % of control and the T/C (dose: 400.0 mg/kg/injection, schedule: Q04DX003 (sc), vehicle: saline with Tween-80) is -82 % of control.
As to `O=S(=O)(N=N/C=C1\C=CC=CN1O)c1cccs1`, the T/C runs as follows: under setting [1], 99 % of control; under setting [2], 77 % of control; under setting [3], 72 % of control.
Turning to `COc1cccc2c1C(=O)c1c(O)c3c(c(O)c1C2=O)C[C@@](O)(C(C)=O)C[C@@H]3OC1CC(N(C)C)C(O)C(C)O1` (stereo not given in full), the T/C (dose: 2.0 mg/kg/injection, schedule: Q01DX010 (sc), vehicle: water) was 293 % of control and the T/C (dose: 4.0 mg/kg/injection, schedule: Q01DX010 (sc), vehicle: water) is 120 % of control.
For `Cc1ccc(S(=O)(=O)N/N=C/C(Br)=C(/Br)C(=O)O)cc1`, the T/C runs as follows: (dose: 2.5 mg/kg/injection, schedule: Q04DX003 (sc), vehicle: saline) 95 % of control; (dose: 5.0 mg/kg/injection, schedule: Q04DX003 (sc), vehicle: saline) 100 % of control; (dose: 10.0 mg/kg/injection, schedule: Q04DX003 (sc), vehicle: saline) 100 % of control; (dose: 20.0 mg/kg/injection, schedule: Q04DX003 (sc), vehicle: saline) 78 % of control; under setting [4], 80 % of control; under setting [5], 71 % of control. For the same compound, the T/C (dose: 600.0 mg/kg/injection, schedule: Q04DX003 (sc), vehicle: Klucel (hydroxypropylcellulose) (HPC)) was 26 % of control.
For `COC1CC(C)C(OC)C2=CC(=O)C=C(NC(=O)/C(C)=C/C=C\C(C)C(OC(N)=O)/C(C)=C\C(C)C1OC)C2=O` (stereo not given), the T/C runs as follows: (dose: 12.5 mg/kg/injection, schedule: Q04DX003 (sc), vehicle: saline + alcohol) 81 % of control; (dose: 25.0 mg/kg/injection, schedule: Q04DX003 (sc), vehicle: saline + alcohol) 97 % of control.
Regarding `CC(C)[NH-].CC(C)[NH-].O.O.[Cl][Pt+2][Cl]`, the T/C runs as follows: (dose: 3.12 mg/kg/injection, schedule: Q01DX010 (sc), vehicle: dextrose) 80 % of control and 97 % of control; (dose: 6.25 mg/kg/injection, schedule: Q01DX010 (sc), vehicle: dextrose) 7 % of control and 22 % of control; (dose: 25.0 mg/kg/injection, schedule: Q01DX010 (sc), vehicle: dextrose) -89 % of control.
Regarding `O=C(O)CCCc1ccc(N(CCCl)CCCl)cc1`, the T/C (dose: 4.0 mg/kg/injection, schedule: Q01DX010 (sc), vehicle: saline with Tween-80) was -6 % of control and the T/C (dose: 16.0 mg/kg/injection, schedule: Q01DX010 (sc), vehicle: saline with Tween-80) is -65 % of control.
As for `CCOc1cc2c(cc1C(C)c1ccc(OC)cc1)OCO2` (stereo not given), the T/C (dose: 150.0 mg/kg/injection, schedule: Q04DX003 (sc), vehicle: distilled water + alcohol) was 43 % of control; the T/C (dose: 300.0 mg/kg/injection, schedule: Q04DX003 (sc), vehicle: distilled water + alcohol) was 31 % of control; the T/C (dose: 600.0 mg/kg/injection, schedule: Q04DX003 (sc), vehicle: distilled water + alcohol) was 19 % of control; the T/C (dose: 1200.0 mg/kg/injection, schedule: Q04DX003 (sc), vehicle: distilled water + alcohol) is 52 % of control.
As to `Cc1cc(Br)c2nsnc2c1[N+](=O)[O-]`, the T/C (dose: 150.0 mg/kg/injection, schedule: Q04DX003 (ip), vehicle: saline with Tween-80) was 104 % of control; the T/C (dose: 300.0 mg/kg/injection, schedule: Q04DX003 (ip), vehicle: saline with Tween-80) was 74 % of control; the T/C (dose: 600.0 mg/kg/injection, schedule: Q04DX003 (ip), vehicle: saline with Tween-80) is 97 % of control; the T/C (dose: 1200.0 mg/kg/injection, schedule: Q04DX003 (ip), vehicle: saline with Tween-80) is 159 % of control.
As to `Nc1nncs1`, the T/C runs as follows: (dose: 3.13 mg/kg/injection, schedule: Q01DX010 (sc), vehicle: saline) 92 % of control; (dose: 6.25 mg/kg/injection, schedule: Q01DX010 (sc), vehicle: saline) 99 % of control; (dose: 25.0 mg/kg/injection, schedule: Q01DX010 (sc), vehicle: saline) 86 % of control.
On to `Cc1ccccc1SSc1ccccc1C`, for which the T/C is, setting by setting: (dose: 200.0 mg/kg/injection, schedule: Q01DX010 (sc), vehicle: saline with Tween-80) 88 % of control; (dose: 400.0 mg/kg/injection, schedule: Q01DX010 (sc), vehicle: saline with Tween-80) 96 % of control; (dose: 800.0 mg/kg/injection, schedule: Q01DX010 (sc), vehicle: saline with Tween-80) 91 % of control.
On to `CCN(Cc1ccc(Cl)c(Cl)c1)c1ccc2nc(N)nc(N)c2c1C`, for which the T/C runs as follows: (dose: 9.38 mg/kg/injection, schedule: Q04DX003 (sc), vehicle: distilled water + Tween-80) 93 % of control; (dose: 18.75 mg/kg/injection, schedule: Q04DX003 (sc), vehicle: distilled water + Tween-80) 86 % of control.
